This is an account of results in US20240279603A1, “METHODS OF PROCESSING ADULT NEURAL CELLS FROM MAMMALS AND ASSAYS THEREOF” (THE TEXAS A&M UNIVERSITY SYSTEM, priority 2021, published 2024).

In the series the test system is primary cortical neurons. The experiment in a line: Analysis of neurite outgrowth and survival of cultured adult cortical neurons (TUBB3/DAPI high-content imaging). It is filed as cell-based, mouse. The conditions noted are these: for average neurite length vs Vehicle / number of valid neurons vs Vehicle / total neurite outgrowth vs Vehicle: 150 nM 7-epi Paclitaxel; for average neurite length vs Vehicle / number of valid neurons vs Vehicle / total neurite outgrowth vs Vehicle / overall screening result: 3DIV; for overall screening result: 7-epi Paclitaxel. Here is the method: The instant example provides an exemplary protocol, method, and application of processing and screening using adult cortical neurons obtained from adult mice. In particular, the instant example used young adult and middle-aged male and female wild-type C57Bl/6 mice in which the young adult group comprised mice of 4-9 weeks of age and the middle-age group comprised mice of 40-48 weeks of age.
Approximately 20 μL of 50 μg/mL Poly-D-Lysine (PDL, Sigma Aldrich, A-003-M) was added onto the wells of 384-well glass bottom (Brooks Life Sciences, MGB101-1-2-LG-L) or plastic bottom (Greiner-Bio, 781091) plates and incubated inside a 5% CO2 incubator at 37° C. for 48 hours. After incubation, the wells of the plates were washed 5 times with H2O and set to dry overnight at room temperature and were used within 24 hours after drying.
Mice were euthanized and their brains were extracted and placed in cold Hank's balanced salt solution (HBSS) followed by microdissection of the cortex. Up to 1.25 grams of cortical tissue were placed in gentleMACS™ C tubes (Miltenyi Biotec, #130-093-237), where each tube contained 5 mL of 0.3 mg/mL papain (Worthington, LS003126) diluted in HBSS.
The gentleMACS™ C tubes were placed on the gentleMACS™ Octo Dissociator with heaters (Miltenyi Biotec, #130-096-427) with heating cuffs attached and underwent the gentleMACS Program 37C_ABDK_01 protocol. After protocol completion, the contents of the gentleMACS™ C Tube were strained through a 70 μm cell strainer (Miltenyi Biotec, #130-110-916) placed on top of a 15 mL conical centrifuge tube. Then, 7 mL of cold Dulbecco's Phosphate-Buffered Saline with glucose and pyruvate (DPBS, Thermo Fisher Scientific, 14287072) was added into each of the 15 mL conical centrifuge tubes on top of the strained cells. The 15 mL tubes were centrifuged at 300×g for 10 minutes at 4° C. before aspirating the supernatant completely.
Debris removal solution was made by adding 1800 μL of Debris Removal Concentrate (Miltenyi Biotec, #130-109-398) to 6200 μL of cold DPBS. The remaining pellet inside the 15 mL tubes was resuspended with 8 mL of Debris Removal Solution. Very slowly, 4 mL of cold DPBS was dispensed on top of the debris removal solution and cell mixture in each 15 mL tube forming a clear layer on top. The 15 mL tubes were centrifuged at 3000×g for 10 minutes at 4° C. with slow acceleration and deceleration. The top clear and middle debris layers were aspirated leaving the milky mixture beneath the debris layer untouched. 6 mL of DPBS was added onto the milky mixture and mixed gently before centrifuging at 300×g for 5 minutes at 4° C. All supernatant was aspirated afterwards.
Red Blood Cell Remover Solution was made by mixing 125 μL of Red Blood Cell Lysis Solution 10× (Miltenyi Biotec, #130-094-183) with 1125 μL of H2O. The remaining pellet was resuspended in 1.25 mL of Red Blood Cell Remover Solution and incubated for 10 minutes at 4° C. before the addition of 12 mL of 0.5% bovine serum albumin (BSA, Miltenyi Biotec, #130-091-376) diluted in DPBS. The mixture was centrifuged at 300×g for 5 minutes at 4° C. with the supernatant aspirated completely afterwards. The remaining pellet was resuspended in 80 μL of 0.5% BSA and 20 μL of Non-Neuronal Cells Biotin-Antibody Cocktail (Miltenyi Biotec, #130-115-389) and incubated for 5 minutes at 4° C. Cells were washed by adding 2 mL of 0.5% BSA followed by centrifugation at 300×g for 5 minutes at 4° C. followed by aspiration of the supernatant. The remaining pellet was resuspended in 80 μL of 0.5% BSA and 20 μL of Anti-Biotin MicroBeads (Miltenyi Biotec, #130-115-389) and incubated for 10 minutes at 4° C.
After the addition of 6 mL 0.5% BSA, the mixture was flowed through 0.5% BSA primed LS columns (Miltenyi Biotec, #130-042-401). The negative fraction containing the majority of neurons was collected and centrifuged at 300×g for 5 minutes at 4° C. and resuspended in neuron media. […]

[1] abbreviates: 5 μM (S)-H-1152 vs Vehicle (0.05% DMSO), young adult male mice, 2DIV, 10,000 cells plated per well, two-way ANOVA.
Where [2] appears, read: young adult male mice, 2DIV, relative to 0% DMSO.
Where [3] appears, read: young adult male mice, 2DIV, PDL coated wells, laminin coating 10 μg/mL.

For the molecule `CC(=O)O[C@H]1C(=O)[C@]2(C)[C@H](O)C[C@H]3OC[C@@]3(OC(C)=O)[C@H]2[C@H](OC(=O)c2ccccc2)[C@]2(O)C[C@H](OC(=O)[C@H](O)[C@@H](NC(=O)c3ccccc3)c3ccccc3)C(C)=C1C2(C)C` [7-epi Paclitaxel], the “average neurite length vs Vehicle” value by setting is: (middle-aged male cohort) “significantly increased”; (young adult female cohort) “significantly increased”; (young adult male cohort) “significantly increased”. The “number of valid neurons vs Vehicle” value (middle-aged male cohort) is “without affecting”, the “number of valid neurons vs Vehicle” value (young adult female cohort) is listed as “significantly decreased” and the “number of valid neurons vs Vehicle” value (young adult male cohort) is recorded as “significantly decreased”. For the same molecule, the “total neurite outgrowth vs Vehicle” value is, setting by setting: (middle-aged male cohort) “without affecting”; (young adult female cohort) “significantly decreased”; (young adult male cohort) “significantly decreased”. In addition, the overall screening result is, setting by setting: (middle-aged male neurons) “overall positive result”; (young adult neurons) “overall negative result”.

`Cc1cncc2cccc(S(=O)(=O)N3CCCNC[C@@H]3C)c12` [(S)-H-1152]: under setting [1], the average neurite length entry is given as “significantly increased” and the “number of valid neurons” value is “significantly increased”. Moreover, the “slope of the total neurite outgrowth linear regression line against cell plating density” value (5 μM (S)-H-1152 vs Vehicle, young adult male mice, 2DIV, 1,500-15,000 cells per well) was “steeper increase”.

For `C[S+](C)[O-]` [DMSO, Dimethyl sulfoxide], under setting [2], the “correlation between average neurite length and % DMSO in the media (linear regression)” value is given as “significant negative correlation”; the “correlation between number of valid neurons per well and % DMSO in the media (linear regression)” value was “significant negative correlation”; the “correlation between total neurite outgrowth and % DMSO in the media (linear regression)” value is given as “significant negative correlation”.

In the case of laminin, under setting [3], the “average neurite length, change relative to the control group (no B27+ supplement or laminin coating)” value is reported as “did not induce a significant changes”; the “number of valid neurons, change relative to the control group (no B27+ supplement or laminin coating)” value is recorded as “did not induce a significant changes”; the “total neurite outgrowth, change relative to the control group (no B27+ supplement or laminin coating)” value is “did not induce a significant changes”.
